In patent US20090104145A1, “Mixtures of Anthranilamide Invertebrate Pest Control Agents” (priority 2004, published 2009):

Test system: corn planthopper (Pereginus maidis)
Assay: whole plant or invertebrate
Format: in vivo
Details: read-out: % mortality (obs)
Experimental: The pest control protection afforded by the mixtures or compositions is not limited, however, to these species. The analysis of synergism or antagonism between the mixtures or compositions was determined using Colby's equation. The average % mortality data for the test compounds alone were inserted into the Colby's equation. If the observed average % mortality was higher than “p”, the expected % mortality, the mixture or composition had synergistic effects. If the observed average % mortality was equal to or lower than the expected mortality, the mixture or composition either had no synergistic effect or an antagonistic effect. In these tests, Compound 1 is the compound of Formula 1.
Test compounds were formulated using a solution containing 10% acetone, 90% water and 300 ppm X-77® Spreader Lo-Foam Formula non-ionic surfactant containing alkylarylpolyoxyethylene, free fatty acids, glycols and isopropanol (Loveland Industries, Inc.) to provide the desired concentration in ppm. Formulated test solutions were then applied in 1 mL volumes through a SUJ2 atomizer nozzle with ⅛ JJ custom body (Spraying Systems Co.) positioned 1.27 cm (0.5 inches) above the top of each test unit.
For evaluating control of corn planthopper (Pereginus maidis) through contact and/or systemic means, each test unit consisted of a small open cylindrical container with a 3- to 4-day-old corn (maize) plant (spike) inside. White sand was added to the top of the soil prior to application. Test compounds were formulated and sprayed with 3 replications as described for Test A. After spraying, the test units were allowed to dry for 1 hour before they were post-infested with 10 to 20 corn planthoppers (18- to 20-day-old nymphs) by sprinkling them onto the sand with a salt shaker. A black, screened cap was placed on the top of each container. The test units were held for 6 days in a growth chamber at 19-21° C. and 50-70% relative humidity.

CNC(=O)c1cc(C#N)cc(C)c1NC(=O)c1cc(Br)nn1-c1ncccc1Cl [Compound 1, 3-bromo-N-[4-cyano-2-methyl-6-[(methylamino)carbonyl]phenyl]-1-(3-chloro-2-pyridinyl)-1H-pyrazole-5-carboxamide] showed a mortality at 0.3 ppm (rate 0.3 ppm) of 15%, a mortality at 3 ppm (rate 3 ppm) of 26% and a mortality at 30 ppm (rate 30 ppm) of 90%.
